Literature values as cited in PMC10623564, “Ruthenium-Based Photoactivated Chemotherapy” (Journal of the American Chemical Society, 2023).
Where two headings read alike, the source gives them in different places. Marks after values point to notes of the source that are not given here.

Key:
[1] = for φPS, mtep photosubstitution: in acetonitrile (521 nm printed for 23^+); for φPS, photosubstitution of one axial MeCN by chloride: 298 K, in CH2Cl2
[2] = not given; remark: listed apart in the source
[3] = for φΔ, singlet oxygen (1O2) generation quantum yield: in CD3OD solution
[4] = test system: orthotopic CRMM1 eye tumor model; set-up: method as in PMID 35774173
[5] = test system: CRMM2 conjunctival melanoma cancer cell line; set-up: method as in PMID 35774173; settings: CRMM2 cells, green light
[6] = test system: CRMM1 conjunctival melanoma cancer cell line; set-up: method as in PMID 35774173; settings: CRMM1 cells, green light
[7] = test system: PC3Pro4 prostate cancer cell lines; set-up: method as in PMID 35774173; settings: PC3Pro4 cells, green light
[8] = test system: PC3Pro4 ectopic prostate zebrafish tumor model; set-up: method as in PMID 35774173; settings: compound in water or intravenous injection, green light
CYP3A4 = test system: CYP3A4; set-up: method as in PMID 34110801; settings: Figure 8c, read-out: IC50, CYP3A4 protein activity
A431 skin cancer cells = test system: A431 skin cancer cells; set-up: method as in PMID 28666065
NAMPT = test system: NAMPT; set-up: method as in PMID 28666065
[9] = conditions not given
cancer cells = test system: cancer cells; set-up: method as in PMID 30155140; settings: photosubstitution of the axial dmso ligand
[10] = λexc 450 nm, in water, room temperature
[11] = λexc 521 nm, in acetonitrile, room temperature
[12] = λexc 450 nm, in acetonitrile, room temperature
[13] = λexc not given, in water, room temperature

Q: Which “φPS, quantum yield for photosubstitution” value [1, 10] does the source give for `CC#N.CC(=O)C=C(C)[O][Ru+].c1ccc(-c2cccc(-c3ccccn3)n2)nc1` [1^+, [Ru(tpy)(acac)(MeCN)]^+] here?
A: Its value is 0.014 (450) ^j.

Q: What about the “toxicity in the dark” value (dark) of the same compound?
A: Its value is “quite toxic in the dark”.

Q: With `Cc1cccc(-c2cccc(C)n2)n1.[Ru+2].c1ccc(-c2ccccn2)nc1.c1ccc(-c2ccccn2)nc1` [2^2+, [Ru(bpy)2(dmbpy)]^2+] as the compound, how does the “φPS, quantum yield for photosubstitution” value ([1]; λexc 413 nm, in acetonitrile, room temperature) read?
A: Its value is 0.05 (413) ^f.

Q: Which results are given for `Oc1cccc(-c2cccc(O)n2)n1.[Ru+2].c1ccc(-c2ccccn2)nc1.c1ccc(-c2ccccn2)nc1` [3^2+, [Ru(bpy)2(6,6′-dOHbpy)]^2+]?
A: λmax^MLCT ([2]; Table 1 row with φPS in aqueous solution at pH 5.0): 462 nm; λmax^MLCT ([2]; Table 1 row with φPS in aqueous solution at pH 7.5): 493 nm; φPS, quantum yield for photosubstitution ([1]; λexc 450 nm, in aqueous solution at pH 5.0): 0.0058 (450) ^g; φPS, quantum yield for photosubstitution ([1]; λexc 450 nm, in aqueous solution at pH 7.5): 0.0012 (450) ^h; φΔ, singlet oxygen (1O2) generation quantum yield ([3]; Table 1 row with φPS at pH 5.0): 0.041 ^i; φΔ, singlet oxygen (1O2) generation quantum yield ([3]; Table 1 row with φPS at pH 7.5): 0.18 ^i

Q: What does the source list for `CSCc1ccccn1.[Ru+2].c1ccc(-c2ccccn2)nc1.c1ccc(-c2ccnc3c2ccc2c(-c4ccccc4)ccnc23)cc1` [5^2+, [Ru(dpp)(bpy)(mtmp)]^2+]?
A: activation in vivo ([4]; four consecutive PACT treatments of 90 min irradiation (114 J/cm^2) each, 520 nm): clear activation; antitumor activity in vivo ([4]; orthotopic eye tumor model, retro-orbital injection, green light (520 nm, 114 J/cm^2)): good antitumor activity; PI value (photoindex) [5]: 8.8; PI value (photoindex) [6]: 8.5; PI value (photoindex) [7]: > 31; photosubstitution quantum yield ([1]; in deaerated acetonitrile): 0.11; φPS, quantum yield for photosubstitution [1, 11]: 0.111 (521) ^f; antitumor activity in vivo [8]: no antitumor activity

Q: Which “φPS, quantum yield for photosubstitution” value ([1]; λexc 350 nm, in water, room temperature) does the source give for `N.N.[Ru+2].c1ccc(-c2ccccn2)nc1.c1ccc(-c2ccccn2)nc1` [8^2+, [Ru(bpy)2(NH3)2]^2+] here?
A: Its value is 0.024 (350) ^j.

Q: For `CC(C)(C)OC(=O)N[C@H](CSCCC(=O)NCc1cccnc1)Cc1ccccc1.Cc1cccc(-c2cccc(C)n2)n1.[Ru+2].c1ccc(-c2cccc(-c3ccccn3)n2)nc1` [11^2+, [Ru(tpy)(dmbpy)(R-py)]^2+], which IC50 (CYP3A4; after light activation) is on record?
A: Its IC50 is 2.2 µM.

Q: What about the IC50 (CYP3A4; in the dark) of the same compound?
A: The IC50 was 0.9 µM.

Q: What about the “φPS, quantum yield for photosubstitution” value ([1]; λexc 500 nm, in acetonitrile, room temperature) of the same compound?
A: The value was 0.31 (500) ^f.

Q: What about the “φPS, quantum yield for photosubstitution” value ([1]; λexc 500 nm, in water, room temperature) of the same compound?
A: The value was 0.15 (500) ^j.

Q: For `CC(C)(C)c1ccc(S(=O)(=O)NCc2ccc(C(=O)Nc3cccnc3)cc2)cc1.[Ru+2].c1ccc(-c2cccc(-c3ccccn3)n2)nc1.c1ccc2nc(-c3ccc4ccccc4n3)ccc2c1` [12^2+, [Ru(tpy)(biq)(STF31)]^2+], which “PI value (photoindex)” value (A431 skin cancer cells; A431 cells, normoxia (21% O2)) is on record?
A: The value was 3.3.

Q: And the EC50 (A431 skin cancer cells; A431 skin cancer cells, normoxia, dark)?
A: The EC50 was 23.6 µM.

Q: And the “PI value (photoindex)” value (A431 skin cancer cells; hypoxic A431 cells (1% O2))?
A: Its value is 3.6.

Q: And the “λmax (absorption maximum)” value ([2]; Figure 6 bottom)?
A: Its value is 531 nm.

Q: What about the “εexc, molar absorption coefficient at the excitation wavelength” value ([2]; λexc = 625 nm (red light)) of the same compound?
A: The value was 379 M^–1·cm^–1.

Q: What about the “loss of potency on caging relative to STF31” value (NAMPT; NAMPT, dark) of the same compound?
A: Its value is 18 times.

Q: What about the IC50 (NAMPT; caged compound in the dark, read-out: IC50,dark, NAMPT inhibition) of the same compound?
A: The IC50 was 4.8 µM.

Q: And the “φPS, quantum yield for photosubstitution” value ([1]; λexc 625 nm, in water, room temperature)?
A: Its value is 0.013 (625) ^j.

Q: Which “φPS, quantum yield for photosubstitution” value ([1]; λexc 400 nm, in water, room temperature) does the source give for `CC#N.CC#N.[Ru+2].c1ccc(-c2ccccn2)nc1.c1ccc2cc3nc4c5cccnc5c5ncccc5c4nc3cc2c1` [17^2+, [Ru(bpy)(dppn)(MeCN)2]^2+] here?
A: Its value is 0.002 (400) ^j.

Q: With `CSCCc1ccccn1.[Ru+][c]1ccccc1-c1ccccn1.c1ccc(-c2ccccn2)nc1` [23^+, [Ru(bpy)(phpy)(mtep)]^+] as the compound, how does the “φPS, mtep photosubstitution” value [1] read?
A: Its value is 0.00035.

Q: And the “φPS, quantum yield for photosubstitution” value [1, 11]?
A: The value was 0.00035 (521) ^f.

Q: Which IC50 (NAMPT; uncaged inhibitor, read-out: IC50, NAMPT inhibition) does the source give for `CC(C)(C)c1ccc(S(=O)(=O)NCc2ccc(C(=O)Nc3cccnc3)cc2)cc1` [STF31, reference compound] here?
A: Its IC50 is 0.25 µM.

Q: Which results are given for `CC#N.CC#N.[Ru+2].c1ccc(-c2ccccn2)nc1.c1ccc(-c2ccccn2)nc1` [[Ru(bpy)2(MeCN)2]^2+, reference compound]?
A: φPS, quantum yield for photosubstitution [1, 10]: 0.22 (450) ^j; φPS, quantum yield for photosubstitution ([1]; λexc printed as 40098 nm, in water, room temperature): 0.21 (40098) ^j

Q: For `CSCCc1ccccn1.[Ru+2].c1ccc(-c2ccccn2)nc1.c1ccc(-c2ccccn2)nc1` [[Ru(bpy)2(mtep)]^2+, reference compound], which “φPS, mtep photosubstitution” value [1] is on record?
A: The value was 0.0030.

Q: Which results are given for `[Ru+2].c1ccc(-c2ccccn2)nc1.c1ccc(-c2ccccn2)nc1.c1ccc(-c2ccccn2)nc1` [[Ru(bpy)3]^2+, reference compound]?
A: φP (phosphorescence) [9]: ≈ 0.02; φPS, quantum yield for photosubstitution ([1]; λexc 436 nm, at 363 K in 0.1 M aqueous HCl): 0.00053 (436) ^e; φPS, quantum yield for photosubstitution [1, 12]: 0 (450) ^f; φΔ (generator of 1O2) ([3]; conditions not given): ≈ 0.73

Q: What does the source list for `CC#N.CC#N.CC#N.[Ru+2].c1ccc(-c2cccc(-c3ccccn3)n2)nc1` [[Ru(tpy)(MeCN)3]^2+, reference compound]?
A: φPS, photosubstitution of one axial MeCN by chloride ([1]; 436 nm): 0.040; φPS, photosubstitution of one axial MeCN by chloride ([1]; 480 nm): 0.041

Q: With `CSCCO.[Ru+2].c1ccc(-c2cccc(-c3ccccn3)n2)nc1.c1ccc(-c2ccccn2)nc1` [[Ru(tpy)(bpy)(Hmte)]^2+, reference compound] as the compound, how does the “φPS, quantum yield for photosubstitution” value ([1]; λexc 452 nm, in water, room temperature) read?
A: Its value is 0.022 (452) ^j.

Q: For `O.[Ru+2].c1ccc(-c2cccc(-c3ccccn3)n2)nc1.c1ccc(-c2ccccn2)nc1` [[Ru(tpy)(bpy)(OH2)]^2+, reference compound], which “toxicity of the complex by itself” value is on record?
A: Its value is “poorly toxic”.

Q: Which “quantum yield of photosubstitution of dmso by acetonitrile” value ([1]; at 450 nm) does the source give for `CS(C)=O.[Ru+2].c1ccc(-c2cccc(-c3ccccn3)n2)nc1.c1ccc(-c2ccccn2)nc1` [[Ru(tpy)(bpy)(dmso)]^2+, reference compound] here?
A: Its value is 0.016.

Q: And the “φPS, quantum yield for photosubstitution” value [1, 12]?
A: The value was 0.016 (450) ^f.

Q: For `Cc1cccc(-c2cccc(C)n2)n1.[Cl-].[Cl][Ru+].c1ccc(-c2cccc(-c3ccccn3)n2)nc1` [[Ru(try)(dmbpy)Cl]Cl, [Ru(tpy)(dmbpy)Cl]Cl, reference compound], which IC50 (CYP3A4) is on record?
A: The IC50 was 50 µM.

Q: Which results are given for `CP(C)C.[Ru+2].c1c[nH]cn1.c1ccc(-c2ccccn2)nc1.c1ccc(-c2ccccn2)nc1` [cis-9^2+, cis-[Ru(bpy)2(PMe3)(ImH)]^2+]?
A: absorption maximum [2]: 432 nm; φPS, quantum yield for photosubstitution [1, 13]: 0.10 ^j

Q: Which IC50 (CYP3A4) does the source give for `CC(C)(C)OC(=O)N[C@H](CSCCC(=O)NCc1cccnc1)Cc1ccccc1` [compound 24] here?
A: Its IC50 is 1.5 µM.

Q: With `CP(C)C.[Ru+2].c1c[nH]cn1.c1ccc(-c2ccccn2)nc1.c1ccc(-c2ccccn2)nc1` [trans-9^2+, trans-[Ru(bpy)2(PMe3)(ImH)]^2+] as the compound, how does the absorption maximum [2] read?
A: Its absorption maximum is 464 nm.

Q: And the “φPS, quantum yield for photosubstitution” value [1, 13]?
A: Its value is 0.23 ^j.

Q: Which results are given for [Ru(bapbpy)(dmso)(OH2)]^+ [10^2+]?
A: effect of light irradiation performed in cancer cells (cancer cells): led to cell death; φPS, quantum yield for photosubstitution [1, 10]: 0.003 (450) ^j
